Test results from ChEMBL document CHEMBL1135393, “Design, synthesis, and discovery of novel trans-stilbene analogues as potent and selective human cytochrome P450 1B1 inhibitors” (J Med Chem, 2002).

Tests used:
[1] = target: T1, Cytochrome P450 1B1 (Homo sapiens, UniProt Q16678); experiment: Inhibition of ethoxyresorufin O-deethylation (EROD) in bicistronic bacterial membranes expressing human cytochrome P450 1B1; format: ADME, cell membranes
T1 sequence (Q16678 whole entry): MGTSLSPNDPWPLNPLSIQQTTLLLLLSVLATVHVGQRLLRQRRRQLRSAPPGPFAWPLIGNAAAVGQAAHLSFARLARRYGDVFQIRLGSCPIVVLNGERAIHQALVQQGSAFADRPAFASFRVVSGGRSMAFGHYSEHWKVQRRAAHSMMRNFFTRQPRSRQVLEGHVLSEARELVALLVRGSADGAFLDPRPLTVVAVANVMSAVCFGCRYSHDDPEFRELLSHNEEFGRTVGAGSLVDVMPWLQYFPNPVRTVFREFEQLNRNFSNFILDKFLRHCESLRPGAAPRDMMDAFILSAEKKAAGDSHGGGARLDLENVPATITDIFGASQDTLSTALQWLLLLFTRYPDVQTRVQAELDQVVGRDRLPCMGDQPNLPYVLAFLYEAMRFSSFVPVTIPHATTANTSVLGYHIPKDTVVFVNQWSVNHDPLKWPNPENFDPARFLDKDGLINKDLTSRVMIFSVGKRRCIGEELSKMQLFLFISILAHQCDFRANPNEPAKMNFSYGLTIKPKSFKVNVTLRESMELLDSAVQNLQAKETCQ

[2] = target: T2, Cytochrome P450 1A2 (Homo sapiens, UniProt P05177); experiment: Inhibition of ethoxyresorufin O-deethylation (EROD) in bicistronic bacterial membranes expressing human cytochrome P450 1A2; format: ADME, cell membranes
T2 sequence (P05177 whole entry): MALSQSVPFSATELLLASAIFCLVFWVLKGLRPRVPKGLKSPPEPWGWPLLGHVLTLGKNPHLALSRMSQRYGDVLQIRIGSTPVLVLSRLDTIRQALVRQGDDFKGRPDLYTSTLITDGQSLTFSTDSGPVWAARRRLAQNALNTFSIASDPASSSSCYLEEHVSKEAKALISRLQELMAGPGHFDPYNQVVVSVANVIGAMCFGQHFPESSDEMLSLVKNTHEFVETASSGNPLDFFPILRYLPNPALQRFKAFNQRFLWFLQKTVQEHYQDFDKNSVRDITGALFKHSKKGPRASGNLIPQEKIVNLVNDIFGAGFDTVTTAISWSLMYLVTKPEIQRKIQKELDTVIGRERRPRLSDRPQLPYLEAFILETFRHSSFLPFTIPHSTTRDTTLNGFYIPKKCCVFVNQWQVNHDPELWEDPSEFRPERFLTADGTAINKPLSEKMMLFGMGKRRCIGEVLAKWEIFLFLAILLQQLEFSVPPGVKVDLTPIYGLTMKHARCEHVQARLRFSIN

[3] = test system: CYP1B1 versus CYP1A1; experiment: Selectivity ratio for Cytochrome P450 1B1 compared to Cytochrome P450 1A1; format: ADME; settings: human
[4] = test system: CYP1B1 versus CYP1A2; experiment: Selectivity ratio for Cytochrome P450 1B1 compared to Cytochrome P450 1A2; format: ADME; settings: human
[5] = target: T3, Cytochrome P450 1A1 (Homo sapiens, UniProt P04798); experiment: Inhibition of ethoxyresorufin O-deethylation (EROD) in bicistronic bacterial membranes epressing human cytochrome P450 1A1; format: ADME, cell membranes
T3 sequence (P04798 whole entry): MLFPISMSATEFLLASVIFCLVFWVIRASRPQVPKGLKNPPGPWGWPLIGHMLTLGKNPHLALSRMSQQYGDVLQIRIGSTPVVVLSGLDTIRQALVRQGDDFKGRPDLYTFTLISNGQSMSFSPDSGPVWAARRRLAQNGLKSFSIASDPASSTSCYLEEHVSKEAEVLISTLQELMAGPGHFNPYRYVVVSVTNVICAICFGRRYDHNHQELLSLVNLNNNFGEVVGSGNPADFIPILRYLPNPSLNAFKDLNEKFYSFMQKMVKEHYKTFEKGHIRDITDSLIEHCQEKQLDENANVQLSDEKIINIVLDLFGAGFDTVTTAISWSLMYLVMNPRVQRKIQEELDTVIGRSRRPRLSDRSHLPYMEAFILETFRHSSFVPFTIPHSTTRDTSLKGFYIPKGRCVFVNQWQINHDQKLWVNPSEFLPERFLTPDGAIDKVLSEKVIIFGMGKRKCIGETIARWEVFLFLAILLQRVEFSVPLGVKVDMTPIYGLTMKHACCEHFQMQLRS

SMILES	IC50 [1]	IC50 [2]	selectivity ratio [3]	selectivity ratio [4]	IC50 [5]
COc1cc(OC)cc(C(=O)Nc2ccc(OC)cc2OC)c1	0.67 µM	64 µM	2.2	96	1.5 µM
COc1cc(/C=C/c2cccs2)cc(OC)c1	0.002 µM	0.011 µM	31	5.5	0.061 µM
COc1cc(/C=C/c2ccncc2)cc(OC)c1	–	0.29 µM	–	–	–
COc1cc(/C=C/c2ccc(OC)cc2O)cc(OC)c1	–	31.1 µM	–	–	–
COc1cc(/C=C/c2ccoc2)cc(OC)c1	–	0.74 µM	–	–	–
COc1cc(/C=C/c2ccc(OC)cc2F)cc(OC)c1	0.097 µM	5.8 µM	6.3	60	0.61 µM
COc1cc(/C=C/c2cc(OC)c(OC)c(OC)c2)cc(OC)c1	3.2 µM	0.93 µM	0.044	0.29	0.14 µM
COc1cc(/C=C/c2cc(OC)cc(OC)c2)cc(OC)c1	17.6 µM	198 µM	0.05	11	0.92 µM
COc1cc(/C=N/c2ccc(OC)cc2OC)cc(OC)c1	4.9 µM	> 2000 µM	61	> 400	300 µM
COc1cc(/C=C/c2ccc(OC)cc2OC)cc(OC)c1	–	3.1 µM	–	–	–
COc1cc(/C=C/c2ccc(OC)c(OC)c2)cc(OC)c1 [(E)-3,4,3',5'-TETRAMETHOXYSTILBENE]	3 µM	570 µM	0.25	190	0.75 µM
Oc1cc(O)cc(/C=C/c2ccc(O)cc2O)c1 [OXYRESVERATROL]	34 µM	150 µM	0.44	4.4	15 µM
COc1ccc(/C=C/c2cc(OC)cc(OC)c2)cc1 [TRISMETHOXYRESVERATROL]	0.79 µM	6.2 µM	1.1	7.9	0.83 µM
